The source made the active and inactive calls. No cut-off for these calls is given here.
Experiments:
[1] = target: T1, Protoporphyrinogen oxidase 2 (Spinacia oleracea) (UniProt Q94IG7); assay: Inhibition of Stellaria media protoporphyinogen oxidase assessed as herbicidal activity at 10 g/ha measured after 21 days after treatment under greenhouse by time-course analysis; design: scale not given: the % may be the effect or the level left
T1 sequence (whole entry): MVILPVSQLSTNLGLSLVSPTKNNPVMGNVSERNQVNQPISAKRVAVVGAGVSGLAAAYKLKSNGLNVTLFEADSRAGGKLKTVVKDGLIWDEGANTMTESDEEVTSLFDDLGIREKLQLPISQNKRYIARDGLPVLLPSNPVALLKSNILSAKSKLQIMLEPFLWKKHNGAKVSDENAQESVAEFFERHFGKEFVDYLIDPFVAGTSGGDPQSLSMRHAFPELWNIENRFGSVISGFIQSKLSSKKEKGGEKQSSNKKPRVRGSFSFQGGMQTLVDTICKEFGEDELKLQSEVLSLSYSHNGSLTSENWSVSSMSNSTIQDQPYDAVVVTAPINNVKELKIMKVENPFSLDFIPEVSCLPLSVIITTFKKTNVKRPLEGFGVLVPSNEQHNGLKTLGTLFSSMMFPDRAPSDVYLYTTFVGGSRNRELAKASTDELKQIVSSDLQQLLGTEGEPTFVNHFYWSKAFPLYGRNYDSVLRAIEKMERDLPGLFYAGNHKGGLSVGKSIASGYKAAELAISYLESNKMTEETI

[2] = target: T2, Protoporphyrinogen oxidase, chloroplastic (Nicotiana tabacum) (UniProt O24163); assay: Inhibition of Veronica hederaefolia protoporphyrinogen oxidase by post-emergence herbicidal activity assay; settings: Veronica hederifolia
T2 sequence (whole entry): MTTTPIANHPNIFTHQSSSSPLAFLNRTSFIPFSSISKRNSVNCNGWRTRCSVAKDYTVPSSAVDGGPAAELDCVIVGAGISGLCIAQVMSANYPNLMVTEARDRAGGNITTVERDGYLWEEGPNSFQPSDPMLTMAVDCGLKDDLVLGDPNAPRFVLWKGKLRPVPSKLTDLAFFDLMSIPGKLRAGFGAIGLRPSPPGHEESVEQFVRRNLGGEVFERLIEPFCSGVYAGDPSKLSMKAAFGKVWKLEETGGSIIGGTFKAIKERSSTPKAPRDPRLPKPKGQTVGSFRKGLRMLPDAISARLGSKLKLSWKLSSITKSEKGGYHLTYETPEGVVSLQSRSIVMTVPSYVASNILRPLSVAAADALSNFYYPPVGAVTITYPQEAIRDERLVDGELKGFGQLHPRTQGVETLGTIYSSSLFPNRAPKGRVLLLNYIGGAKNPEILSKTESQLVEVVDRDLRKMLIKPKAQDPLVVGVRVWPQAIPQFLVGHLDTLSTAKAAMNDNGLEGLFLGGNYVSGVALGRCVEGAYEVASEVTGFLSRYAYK

[3] = target: T3, Protoporphyrinogen oxidase (Medicago truncatula) (UniProt G7L3C0); assay: Inhibition of Viola arvensis protoporphyrinogen oxidase by post-emergence herbicidal activity assay
T3 sequence (whole entry): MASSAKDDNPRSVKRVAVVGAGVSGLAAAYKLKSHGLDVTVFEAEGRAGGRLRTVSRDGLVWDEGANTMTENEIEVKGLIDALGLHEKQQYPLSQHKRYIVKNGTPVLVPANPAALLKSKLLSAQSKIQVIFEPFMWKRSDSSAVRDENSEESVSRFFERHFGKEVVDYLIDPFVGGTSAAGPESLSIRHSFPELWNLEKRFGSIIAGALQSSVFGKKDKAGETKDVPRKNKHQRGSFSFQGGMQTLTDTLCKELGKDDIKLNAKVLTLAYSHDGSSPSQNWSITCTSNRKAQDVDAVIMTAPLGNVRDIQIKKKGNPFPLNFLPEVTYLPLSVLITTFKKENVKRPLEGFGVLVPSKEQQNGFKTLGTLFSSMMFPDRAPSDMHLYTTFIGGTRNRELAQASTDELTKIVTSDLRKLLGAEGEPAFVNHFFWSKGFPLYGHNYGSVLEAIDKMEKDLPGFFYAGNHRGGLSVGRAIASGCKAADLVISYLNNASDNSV

[4] = target: T1, Protoporphyrinogen oxidase 2 (Spinacia oleracea); assay: Inhibition of Stellaria media protoporphyrinogen oxidase by post-emergence herbicidal activity assay
[5] = target: T4, Protoporphyrinogen IX oxidase (Cichorium intybus) (UniProt Q9SPL6); assay: Inhibition of Tripleurospermum maritimum subsp. inodorum protoporphyrinogen oxidase by post-emergence herbicidal activity assay
T4 sequence (whole entry): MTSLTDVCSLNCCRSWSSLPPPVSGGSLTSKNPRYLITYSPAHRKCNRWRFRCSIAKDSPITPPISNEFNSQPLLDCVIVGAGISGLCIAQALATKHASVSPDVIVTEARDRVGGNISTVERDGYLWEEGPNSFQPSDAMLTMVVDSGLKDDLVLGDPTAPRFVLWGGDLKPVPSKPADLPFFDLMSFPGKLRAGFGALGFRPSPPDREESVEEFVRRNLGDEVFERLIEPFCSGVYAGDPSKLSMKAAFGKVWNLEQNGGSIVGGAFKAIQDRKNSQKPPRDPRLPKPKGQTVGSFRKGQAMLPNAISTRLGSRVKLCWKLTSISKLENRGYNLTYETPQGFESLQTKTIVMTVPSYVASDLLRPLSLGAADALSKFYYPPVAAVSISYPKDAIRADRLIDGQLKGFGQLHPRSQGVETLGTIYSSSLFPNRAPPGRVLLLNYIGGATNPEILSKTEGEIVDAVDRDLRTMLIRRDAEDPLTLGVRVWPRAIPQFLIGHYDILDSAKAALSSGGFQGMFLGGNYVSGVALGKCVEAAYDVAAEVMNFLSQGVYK

[6] = target: T2, Protoporphyrinogen oxidase, chloroplastic (Nicotiana tabacum); assay: Inhibition of Galium aparine protoporphyrinogen oxidase by post-emergence herbicidal activity assay
[7] = target: T1, Protoporphyrinogen oxidase 2 (Spinacia oleracea); assay: Inhibition of Stellaria media protoporphyinogen oxidase assessed as herbicidal activity at 100 g/ha measured after 21 days after treatment under greenhouse by time-course analysis; design: scale not given: the % may be the effect or the level left
[8] = target: T1, Protoporphyrinogen oxidase 2 (Spinacia oleracea); assay: Inhibition of Stellaria media protoporphyinogen oxidase assessed as herbicidal activity at 50 g/ha measured after 9 days after treatment under greenhouse by time-course analysis; design: scale not given: the % may be the effect or the level left
Veronica hederifolia = assay: Herbicidal activity against Veronica hederaefolia assessed as killing measured after 21 days after treatment by post-emergence herbicidal activity assay; type: functional
Viola arvensis = assay: Herbicidal activity against Viola arvensis assessed as killing measured after 21 days after treatment by post-emergence herbicidal activity assay; type: functional
Stellaria media = assay: Herbicidal activity against Stellaria media assessed as killing measured after 21 days after treatment by post-emergence herbicidal activity assay; type: functional
[9] = tested on: Tripleurospermum inodorum; assay: Herbicidal activity against Tripleurospermum maritimum subsp. inodorum assessed as killing measured after 21 days after treatment by post-emergence herbicidal activity assay; type: functional
Galium aparine = assay: Herbicidal activity against Galium aparine assessed as killing measured after 21 days after treatment by post-emergence herbicidal activity assay; type: functional
[10] = target: T1, Protoporphyrinogen oxidase 2 (Spinacia oleracea); assay: Inhibition of Stellaria media protoporphyinogen oxidase assessed as herbicidal activity at 100 g/ha measured after 1 days after treatment under greenhouse by time-course analysis
[11] = target: T1, Protoporphyrinogen oxidase 2 (Spinacia oleracea); assay: Inhibition of Stellaria media protoporphyinogen oxidase assessed as herbicidal activity at 0.3 g/ha measured after 14 days after treatment under greenhouse by time-course analysis; design: scale not given: the % may be the effect or the level left

| SMILES | Activity [1] [%] | ED90 [2] [gAi/ha] | ED90 [3] [gAi/ha] | ED90 [4] [gAi/ha] | ED90 [5] [gAi/ha] | ED90 [6] [gAi/ha] | Activity [7] [%] | Activity [8] [%] | ED90 (Veronica hederifolia) [gAi/ha] | ED90 (Viola arvensis) [gAi/ha] | ED90 (Stellaria media) [gAi/ha] | ED90 [9] [gAi/ha] | ED90 (Galium aparine) [gAi/ha] | Activity [10] | Activity [11] [%] |
| --- | --- | --- | --- | --- | --- | --- | --- | --- | --- | --- | --- | --- | --- | --- | --- |
| CCOC(=O)C(Cl)Cc1cc(-n2nc(C)n(C(F)F)c2=O)c(F)cc1Cl (stereo not given) | > 90 | 1 | 5 | 10 | 1.5 | 1.5 | – | – | – | – | – | – | – | – | – |
| COC(=O)c1cc(Oc2ccc(Cl)cc2Cl)ccc1[N+](=O)[O-] | – | 30 | 20 | 100 | 15 | 50 | < 90 | – | – | – | – | – | – | – | – |
| N#Cc1cc(I)c(O)c(I)c1 [IOXYNIL] | – | – | – | – | – | – | – | 90 | 50 | 50 | 50 | 30 | 100 | – | – |
| Cc1cc(Cl)ccc1O[C@@H](C)C(=O)O [MECOPROP-P] | – | – | – | – | – | – | – | – | 300 | 1000 | 100 | 1000 | 300 | Active | – |
| COC(=O)c1ccccc1S(=O)(=O)NC(=O)Nc1nc(C)nc(OC)n1 [METSULFURON-METHYL] | – | – | – | – | – | – | – | – | 50 | 5 | 0.3 | 0.3 | >100 | – | 90 |

Source: ChEMBL document CHEMBL3044865, “Herbicidal Activity and Characteristics of Pyraflufen-ethyl for Controlling Broad-leaved Weeds in Cereals” (J Pestic Sci, 2002)
